Measured values: patent US12655142B2 (Merck Patent GmbH, priority 2019, dated 2026)

Assays:
c-Kit(V654A) = target: T1, c-Kit(V654A) (Homo sapiens, UniProt P10721, V654A); assay: c-Kit(V654A) assay (33P-ATP filter binding kinase assay); format: biochemical; details: recombinant human c-Kit aa 544-end V654A, ATP 200 μM
T1 construct: recombinant human c-Kit, amino acids 544-end containing the V654A mutation; GST (N)
Outline: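 Radiometric filter-binding read-out: substrate 33P incorporation counted by scintillation after P30 filtermat washes in 75 mM phosphoric acid and methanol. Enzyme: N-GST recombinant human c-Kit aa 544-end carrying V654A.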

[1] = target: T2, GIST430/654 cell line expressing mutated constitutively active cKIT receptor tyrosine kinase (Δ560-576 deletion and V654A point mutation) (Homo sapiens, UniProt P10721, DEL560-576/V654A); assay: Cellular cKIT autophosphorylation (phospho-Y307-cKIT, Luminex bead assay) in GIST430/654 cells; format: cell-based; details: compounds 45 min, read-out: GIST 430/654 IC50
T2 construct: endogenous in cells; host or cells: GIST430/654 cells
Outline: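 Phospho-Y307 cKIT in lysates was measured on a Luminex bead assay, with total-cKIT capture overnight at 4 °C and phosphospecific plus PE secondary detection. Cells had 45 min exposure to a compound dilution series the day after plating: GIST430 (Δ560-576) or GIST430/654 (Δ560-576/V654A, grown with 100 nM imatinib). IC50 values are relative to 0.3% DMSO-treated cells.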

[2] = Determination of Efflux-Ratio (ER) in Caco-2 cells; details: human, Caco-2, pH 7.4
Method: Determination of Efflux-Ratio (ER) in Caco-2 Cells
The efflux ratio of the test compounds was determined in Caco-2 human epithelial colorectal adenocarcinoma cell line (TC7 clone) using calculation of apparent permeability (Papp). Cell monolayers were differentiated in vitro for 14 days before the experiment. Subsequently, the test compound (in HBSS pH 7.4 at 1 μM final concentration) was applied on the donor side while HBSS buffer (pH 7.4) was added to the receiver wells. […] The plate was then incubated in a 5% CO2 incubator (37° C., 100% humidity). At the end of the 2 hours incubation period, 50 μL sample was removed from both donor and receiver wells and diluted 1:1 with equal volumes of acetonitrile for LC-MS/MS analysis. The LC-MS/MS analysis used a one-point calibration method from a 1 μM standard solution diluted 1:1 with equal volume of acetonitrile (consistent to the test samples).
The data was used to calculate the apparent permeabilities of the compounds in both apical to basolateral (Papp,AB) and basolateral to apical (Papp,BA) directions at 1 μM concentration in duplicate. The Papp values were calculated from the concentrations in the donor and receiver compartments using the following formula:
Efflux ratio was calculated according to the following formula:

T1 sequence (P10721 544-976 V654A): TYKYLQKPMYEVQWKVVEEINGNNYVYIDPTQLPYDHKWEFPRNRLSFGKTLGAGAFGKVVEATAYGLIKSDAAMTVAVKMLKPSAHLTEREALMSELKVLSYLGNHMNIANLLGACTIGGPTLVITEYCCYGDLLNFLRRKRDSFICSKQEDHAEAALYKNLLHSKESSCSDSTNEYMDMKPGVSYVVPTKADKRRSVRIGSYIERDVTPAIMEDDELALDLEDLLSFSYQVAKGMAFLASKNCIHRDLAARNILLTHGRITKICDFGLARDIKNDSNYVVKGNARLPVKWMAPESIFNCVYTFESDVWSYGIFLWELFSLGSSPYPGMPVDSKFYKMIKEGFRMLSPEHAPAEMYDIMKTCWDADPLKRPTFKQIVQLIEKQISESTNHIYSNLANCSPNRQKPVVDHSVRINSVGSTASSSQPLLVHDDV
T2 sequence (P10721 with tags, fused parts or gaps DEL560-576/V654A): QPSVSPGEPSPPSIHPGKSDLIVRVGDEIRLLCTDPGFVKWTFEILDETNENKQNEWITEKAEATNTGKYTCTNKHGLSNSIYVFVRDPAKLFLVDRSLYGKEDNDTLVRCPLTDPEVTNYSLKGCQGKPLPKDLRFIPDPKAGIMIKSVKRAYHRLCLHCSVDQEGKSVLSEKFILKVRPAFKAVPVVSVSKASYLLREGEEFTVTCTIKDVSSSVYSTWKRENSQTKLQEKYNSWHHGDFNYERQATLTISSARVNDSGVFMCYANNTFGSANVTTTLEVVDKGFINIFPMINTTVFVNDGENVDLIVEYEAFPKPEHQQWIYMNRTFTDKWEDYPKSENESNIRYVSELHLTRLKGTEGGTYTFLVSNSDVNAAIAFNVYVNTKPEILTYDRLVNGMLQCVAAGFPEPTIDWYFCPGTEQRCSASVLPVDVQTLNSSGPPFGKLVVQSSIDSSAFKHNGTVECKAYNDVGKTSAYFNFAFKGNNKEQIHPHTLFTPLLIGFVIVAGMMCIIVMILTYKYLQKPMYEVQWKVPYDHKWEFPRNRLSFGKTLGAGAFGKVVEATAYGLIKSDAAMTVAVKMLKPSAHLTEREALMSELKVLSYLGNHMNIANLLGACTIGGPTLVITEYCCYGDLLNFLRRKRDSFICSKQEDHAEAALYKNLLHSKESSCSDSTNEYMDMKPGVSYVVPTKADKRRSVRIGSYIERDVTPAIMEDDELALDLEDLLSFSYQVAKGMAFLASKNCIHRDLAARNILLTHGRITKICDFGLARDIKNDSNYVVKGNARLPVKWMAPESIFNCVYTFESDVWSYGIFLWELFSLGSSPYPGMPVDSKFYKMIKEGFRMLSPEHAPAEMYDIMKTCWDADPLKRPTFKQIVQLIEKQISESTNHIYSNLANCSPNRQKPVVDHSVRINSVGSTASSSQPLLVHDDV

Row | SMILES | IC50 (c-Kit(V654A)) [nM] | IC50 [1] [nM] | efflux ratio at 2 h, 1 μM [2]
1 | COc1ccn2c(-c3cc(NCc4ccc(-c5cnn(CC6CC6)c5)cc4)ncn3)cnc2c1 [A21, [4-(1-cyclopropylmethyl-1H-pyrazol-4-yl)-benzyl]-[6-(7-methoxy-imidazo[1,2-a]pyridin-3-yl)-pyrimidin-4-yl]-amine] | 4.8 | 58 | < 15
2 | COc1ccn2c(-c3cc(NCc4ccc(-c5noc(C)n5)cc4)ncn3)cnc2c1 [A26, 6-{7-methoxyimidazo[1,2-a]pyridin-3-yl}-N-{[4-(5-methyl-1,2,4-oxadiazol-3-yl)phenyl]methyl}pyrimidin-4-amine] | 8.6 | 130 | < 15
3 | COc1ccn2c(-c3cc(NCc4ccc(-c5cnn(C)n5)cc4)ncn3)cnc2c1 [A32, [6-(7-methoxy-imidazo[1,2-a]pyridin-3-yl)-pyrimidin-4-yl]-[4-(2-methyl-2H-[1,2,3]triazol-4-yl)-benzyl]-amine] | 4.4 | 78 | < 15
4 | COc1ccn2c(-c3cc(NCc4ccc(-c5cnn(C)c5)s4)ncn3)cnc2c1 [A36, 6-{7-methoxyimidazo[1,2-a]pyridin-3-yl}-N-{[5-(1-methyl-1H-pyrazol-4-yl)thiophen-2-yl]methyl}pyrimidin-4-amine] | 4.2 | 140 | < 15
5 | COCCn1ncc(-c2ccc(CNc3cc(-c4cnc5cc(OC)ccn45)ncn3)cc2)n1 [A46, N-({4-[2-(2-methoxyethyl)-2H-1,2,3-triazol-4-yl]phenyl}methyl)-6-{7-methoxyimidazo[1,2-a]pyridin-3-yl}pyrimidin-4-amine] | 6.4 | 95 | < 15
6 | COc1ccn2c(-c3cc(NCc4ccc(-c5cocn5)cc4)ncn3)cnc2c1 [A51, [6-(7-methoxy-imidazo[1,2-a]pyridin-3-yl)-pyrimidin-4-yl]-(4-oxazol-4-yl-benzyl)-amine] | 1.6 | 53 | < 15
7 | CN1CCN(CCOc2ccn3c(-c4cc(NCc5ccc(-c6cnn(C)c6)cc5)ncn4)cnc3c2)CC1 [A61, (6-{7-[2-(4-methyl-piperazin-1-yl)-ethoxy]-imidazo[1,2-a]pyridin-3-yl}-pyrimidin-4-yl)-[4-(1-methyl-1H-pyrazol-4-yl)-benzyl]-amine] | 6.5 | 34 | < 15
8 | CN1CCC(Oc2ccn3c(-c4cc(NCc5ccc(-c6cnn(C)c6)cc5)ncn4)cnc3c2)CC1 [A63, {6-[7-(1-methyl-piperidin-4-yloxy)-imidazo[1,2-a]pyridin-3-yl]-pyrimidin-4-yl}-[4-(1-methyl-1H-pyrazol-4-yl)-benzyl]-amine] | 12 | 84 | < 15
9 | Cn1cc(-c2ccc(CNc3cc(-c4cnc5cc(OCC(C)(C)O)ccn45)ncn3)cc2)cn1 [A64, 2-methyl-1-(3-{6-[4-(1-methyl-1H-pyrazol-4-yl)-benzylamino]-pyrimidin-4-yl}-imidazo[1,2-a]pyridin-7-yloxy)-propan-2-ol] | 6.7 | 84 | < 15
10 | Cn1cc(-c2ccc(CNc3cc(-c4cnc5cc(OCCN6CCN(C7COC7)CC6)ccn45)ncn3)cc2)cn1 [A65, [4-(1-methyl-1H-pyrazol-4-yl)-benzyl]-(6-{7-[2-(4-oxetan-3-yl-piperazin-1-yl)-ethoxy]-imidazo[1,2-a]pyridin-3-yl}-pyrimidin-4-yl)-amine] | 11 | 46 | < 15
11 | CN1CCN(CCOc2ccn3c(-c4cc(NCc5ccc(-n6ccnn6)cc5)ncn4)cnc3c2)CC1 [A67, (6-{7-[2-(4-methyl-piperazin-1-yl)-ethoxy]-imidazo[1,2-a]pyridin-3-yl}-pyrimidin-4-yl)-(4-[1,2,3]triazol-1-yl-benzyl)-amine] | 4.8 | 65 | > 50
12 | COCCOc1ccn2c(-c3cc(NCc4ccc(-c5cnn(C)n5)cc4)ncn3)cnc2c1 [A71, {6-[7-(2-methoxy-ethoxy)-imidazo[1,2-a]pyridin-3-yl]-pyrimidin-4-yl}-[4-(2-methyl-2H-[1,2,3]triazol-4-yl)-benzyl]-amine] | 4.6 | 45 | < 15
13 | Cn1cc(-c2ccc(CNc3cc(-c4cnc5cc(OCCCN6CCOCC6)ccn45)ncn3)cc2)cn1 [A74, [4-(1-methyl-1H-pyrazol-4-yl)-benzyl]-{6-[7-(3-morpholin-4-yl-propoxy)-imidazo[1,2-a]pyridin-3-yl]-pyrimidin-4-yl}-amine] | 4.8 | 49 | < 15
14 | Cn1cc(-c2ccc(CNc3cc(-c4cnc5cc(OCCN6CCC(F)(F)C6)ccn45)ncn3)cc2)cn1 [A77, 6-{7-[2-(3,3-difluoropyrrolidin-1-yl)ethoxy]imidazo[1,2-a]pyridin-3-yl}-N-{[4-(1-methyl-1H-pyrazol-4-yl)phenyl]methyl}pyrimidin-4-amine] | 14 | 40 | < 15
15 | CN1CCC(COc2ccn3c(-c4cc(NCc5ccc(-n6ccnn6)cc5)ncn4)cnc3c2)CC1 [A80, {6-[7-(1-methyl-piperidin-4-ylmethoxy)-imidazo[1,2-a]pyridin-3-yl]-pyrimidin-4-yl}-(4-[1,2,3]triazol-1-yl-benzyl)-amine] | 3.4 | 38 | > 50
16 | Cn1cc(-c2ccc(CNc3cc(-c4cnc5cc(OCC(C)(C)CN6CCCC6)ccn45)ncn3)cc2)cn1 [A91, {6-[7-(2,2-dimethyl-3-pyrrolidin-1-yl-propoxy)-imidazo[1,2-a]pyridin-3-yl]-pyrimidin-4-yl}-[4-(1-methyl-1H-pyrazol-4-yl)-benzyl]-amine] | 8.6 | 76 | < 15
17 | Cn1cc(-c2ccc(CNc3cc(-c4cnc5cc(OCC(C)(C)N)ccn45)ncn3)cc2)cn1 [A104, {6-[7-(2-amino-2-methyl-propoxy)-imidazo[1,2-a]pyridin-3-yl]-pyrimidin-4-yl}-[4-(1-methyl-1H-pyrazol-4-yl)-benzyl]-amine] | 7 | 170 | 15 to 50
18 | Cn1cc(-c2ccc(CNc3cc(-c4cnc5cc(OCCN6CC7(COC7)C6)ccn45)ncn3)cc2)cn1 [A114, [4-(1-methyl-1H-pyrazol-4-yl)-benzyl]-(6-{7-[2-(2-oxa-6-aza-spiro[3.3]hept-6-yl)-ethoxy]-imidazo[1,2-a]pyridin-3-yl}-pyrimidin-4-yl)-amine] | 9.4 | 86 | 15 to 50
19 | Cn1cc(-c2ccc(CNc3cc(-c4cnc5cc(OCCCO)ccn45)ncn3)cc2)cn1 [A131, 3-(3-{6-[4-(1-methyl-1H-pyrazol-4-yl)-benzylamino]-pyrimidin-4-yl}-imidazo[1,2-a]pyridin-7-yloxy)-propan-1-ol] | 7.5 | 69 | < 15
20 | Cn1ncc(-c2ccc(CNc3cc(-c4cnc5cc(OCCCN6CCOCC6)ccn45)ncn3)cc2)n1 [A133] | 2.6 | 30 | < 15
21 | Cn1cc(-c2ccc(CNc3cc(-c4cnc5cc(OCCN6CC(F)C6)ccn45)ncn3)cc2)cn1 [A140, 6-{7-[2-(3-fluoroazetidin-1-yl)ethoxy]imidazo[1,2-a]pyridin-3-yl}-N-{[4-(1-methyl-1H-pyrazol-4-yl)phenyl]methyl}pyrimidin-4-amine] | 11 | 26 | < 15
22 | CN1CCN(CCOc2ccn3c(-c4cc(NCc5ccc(-c6cnn(C)c6)cc5)ncn4)cnc3c2)C(=O)C1 [A141, 4-methyl-1-[2-({3-[6-({[4-(1-methyl-1H-pyrazol-4-yl)phenyl]methyl}amino)pyrimidin-4-yl]imidazo[1,2-a]pyridin-7-yl}oxy)ethyl]piperazin-2-one] | 15 | 85 | > 50
23 | CN1CC(COc2ccn3c(-c4cc(NCc5ccc(-c6cnn(C)c6)cc5)ncn4)cnc3c2)C1 [A144, N-{[4-(1-methyl-1H-pyrazol-4-yl)phenyl]methyl}-6-{7-[(1-methylazetidin-3-yl)methoxy]imidazo[1,2-a]pyridin-3-yl}pyrimidin-4-amine] | 5.1 | 61 | > 50
24 | COc1ccn2c(-c3cc(OCc4ccc(-c5cnn(C)c5)cc4)ncn3)cnc2c1 [A158, 7-methoxy-3-{6-[4-(1-methyl-1H-pyrazol-4-yl)-benzyloxy]-pyrimidin-4-yl}-imidazo[1,2-a]pyridine] | 13 | 140 | < 15
25 | Cn1ncc(-c2ccc(CNc3cc(-c4cnc5cc(OCC6CCNCC6)ccn45)ncn3)cc2)n1 [A165] | 2 | 57 | > 50
26 | Cn1cc(-c2ccc(CNc3cc(-c4cnc5cc(OCC6CCNCC6)ccn45)ncn3)cc2)cn1 [A166, [4-(1-methyl-1H-pyrazol-4-yl)-benzyl]-{6-[7-(piperidin-4-ylmethoxy)-imidazo[1,2-a]pyridin-3-yl]-pyrimidin-4-yl}-amine] | 4 | 120 | > 50
